By mass density is commonly meant mass per unit of volume. What is called refractive index is the speed of light in vacuum divided by its phase velocity in the sample.

Structures are written as SMILES. Numbers after ± are expanded uncertainties.

The conditions of data set [1]: 101.33 kPa, Liquid, Vibrating tube method.
A short description of data set [2]: refractive index (Na D-line) (dimensionless). The note with it: 298.2 K; 101.33 kPa; Liquid; Standard Abbe refractometry.

On to `CCCCCCCCCCCCS` [1-dodecanethiol], for which, in data set [1] (293.2 K), the mass density is 843.94 ± 0.24 kg/m3. Further, the refractive index in data set [2] stood at 1.4586 ± 0.0008.

For `CCCCCCCCCCO` [decan-1-ol], the mass density in data set [1] (298.2 K) was 826.48 ± 0.24 kg/m3. The refractive index in data set [2] was found to be 1.4349 ± 0.0008.

In the case of `CCCCCCCCCCCCO` [dodecan-1-ol], the mass density in data set [1] (298.2 K) is 829.76 ± 0.24 kg/m3. In addition, the refractive index in data set [2] worked out at 1.4412 ± 0.0008.

The values above are taken from the NIST ThermoML archive (doi:10.1016/j.tca.2013.02.006).
